Test results reported in ChEMBL document CHEMBL5653631, “A Potent and Selective ULK1 Inhibitor Suppresses Autophagy and Sensitizes Cancer Cells to Nutrient Stress” (iScience, 2018).

Legend:
[1] = molecular target: T1, Serine/threonine-protein kinase tousled-like 1 (Homo sapiens) (UniProt Q9UKI8); experiment: Inhibition of human recombinant TLK1 at 500 nM related to control ULK1
T1 sequence (whole entry): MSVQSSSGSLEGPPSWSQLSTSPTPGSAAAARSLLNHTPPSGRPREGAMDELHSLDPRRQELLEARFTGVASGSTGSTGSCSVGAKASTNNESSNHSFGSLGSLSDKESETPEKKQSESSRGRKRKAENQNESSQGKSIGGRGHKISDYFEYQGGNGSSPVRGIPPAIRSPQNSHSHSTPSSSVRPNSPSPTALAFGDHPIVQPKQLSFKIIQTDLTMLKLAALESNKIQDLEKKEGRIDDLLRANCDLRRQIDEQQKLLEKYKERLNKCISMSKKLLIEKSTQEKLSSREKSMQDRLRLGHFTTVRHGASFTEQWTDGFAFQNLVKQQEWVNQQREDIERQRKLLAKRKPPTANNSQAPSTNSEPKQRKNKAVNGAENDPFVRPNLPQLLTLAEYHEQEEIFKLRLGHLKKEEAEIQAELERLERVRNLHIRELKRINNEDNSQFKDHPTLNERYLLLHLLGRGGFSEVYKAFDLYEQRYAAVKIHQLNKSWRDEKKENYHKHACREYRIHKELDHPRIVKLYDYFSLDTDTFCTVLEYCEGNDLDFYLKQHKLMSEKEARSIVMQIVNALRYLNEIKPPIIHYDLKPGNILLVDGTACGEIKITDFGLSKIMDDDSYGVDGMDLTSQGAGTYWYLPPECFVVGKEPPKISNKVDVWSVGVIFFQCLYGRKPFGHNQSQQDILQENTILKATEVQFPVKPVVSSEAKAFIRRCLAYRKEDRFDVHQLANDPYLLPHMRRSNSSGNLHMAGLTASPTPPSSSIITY

[2] = molecular target: Homeodomain-interacting protein kinase 1 (Homo sapiens) (UniProt Q86Z02); experiment: Inhibition of human recombinant HIPK1 at 500 nM related to control ULK1
[3] = molecular target: Myosin light chain kinase, smooth muscle (Homo sapiens) (UniProt Q15746); experiment: Inhibition of human recombinant smMLCK at 15 nM related to control ULK1
[4] = molecular target: T2, Ephrin type-B receptor 2 (Homo sapiens) (UniProt P29323); experiment: Inhibition of human recombinant EphB2 at 15 nM related to control ULK1
T2 sequence (whole entry): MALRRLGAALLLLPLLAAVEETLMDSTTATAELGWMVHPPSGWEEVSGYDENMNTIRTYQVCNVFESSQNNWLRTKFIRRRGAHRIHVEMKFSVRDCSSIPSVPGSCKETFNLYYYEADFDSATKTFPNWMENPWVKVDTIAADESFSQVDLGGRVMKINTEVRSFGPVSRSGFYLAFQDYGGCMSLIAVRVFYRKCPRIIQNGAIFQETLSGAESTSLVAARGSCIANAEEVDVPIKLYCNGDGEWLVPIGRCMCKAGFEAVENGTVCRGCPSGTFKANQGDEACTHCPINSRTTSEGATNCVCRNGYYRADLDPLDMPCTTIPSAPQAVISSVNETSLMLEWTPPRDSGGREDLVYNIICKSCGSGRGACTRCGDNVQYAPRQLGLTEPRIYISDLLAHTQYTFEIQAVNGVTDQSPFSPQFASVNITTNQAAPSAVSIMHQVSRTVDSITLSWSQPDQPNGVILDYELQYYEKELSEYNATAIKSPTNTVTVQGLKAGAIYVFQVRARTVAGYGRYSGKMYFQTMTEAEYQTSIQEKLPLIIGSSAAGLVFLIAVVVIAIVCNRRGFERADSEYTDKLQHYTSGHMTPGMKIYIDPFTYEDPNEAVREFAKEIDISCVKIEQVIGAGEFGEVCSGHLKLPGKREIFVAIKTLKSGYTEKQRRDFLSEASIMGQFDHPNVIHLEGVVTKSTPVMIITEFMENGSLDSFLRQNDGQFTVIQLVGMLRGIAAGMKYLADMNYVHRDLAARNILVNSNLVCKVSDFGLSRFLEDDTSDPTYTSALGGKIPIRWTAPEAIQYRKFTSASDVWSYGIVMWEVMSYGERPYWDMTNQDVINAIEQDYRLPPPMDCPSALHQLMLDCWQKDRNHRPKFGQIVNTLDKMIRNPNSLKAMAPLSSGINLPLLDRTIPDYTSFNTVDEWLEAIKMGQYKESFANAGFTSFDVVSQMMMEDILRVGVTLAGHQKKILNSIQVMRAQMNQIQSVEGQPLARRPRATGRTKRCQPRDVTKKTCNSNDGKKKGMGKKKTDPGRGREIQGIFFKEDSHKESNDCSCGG

[5] = molecular target: T3, Mitogen-activated protein kinase 12 (Homo sapiens) (UniProt P53778); experiment: Inhibition of human recombinant p38gamma at 40 nM in presence of ATP by radiometric assay relative to control
T3 sequence (whole entry): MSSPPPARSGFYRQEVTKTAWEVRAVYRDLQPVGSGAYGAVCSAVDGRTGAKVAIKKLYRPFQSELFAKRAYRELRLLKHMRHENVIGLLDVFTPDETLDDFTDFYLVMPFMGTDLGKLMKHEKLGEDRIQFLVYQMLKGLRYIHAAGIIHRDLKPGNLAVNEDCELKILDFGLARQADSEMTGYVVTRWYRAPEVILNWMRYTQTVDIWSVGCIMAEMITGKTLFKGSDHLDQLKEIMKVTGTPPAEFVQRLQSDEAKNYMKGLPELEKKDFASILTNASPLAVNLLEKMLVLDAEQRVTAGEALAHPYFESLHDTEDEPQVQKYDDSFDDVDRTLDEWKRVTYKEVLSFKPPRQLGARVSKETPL

[6] = molecular target: T4, NUAK family SNF1-like kinase 2 (Homo sapiens) (UniProt Q9H093); experiment: Inhibition of human recombinant NuaK2 at 40 nM related to control ULK1
T4 sequence (whole entry): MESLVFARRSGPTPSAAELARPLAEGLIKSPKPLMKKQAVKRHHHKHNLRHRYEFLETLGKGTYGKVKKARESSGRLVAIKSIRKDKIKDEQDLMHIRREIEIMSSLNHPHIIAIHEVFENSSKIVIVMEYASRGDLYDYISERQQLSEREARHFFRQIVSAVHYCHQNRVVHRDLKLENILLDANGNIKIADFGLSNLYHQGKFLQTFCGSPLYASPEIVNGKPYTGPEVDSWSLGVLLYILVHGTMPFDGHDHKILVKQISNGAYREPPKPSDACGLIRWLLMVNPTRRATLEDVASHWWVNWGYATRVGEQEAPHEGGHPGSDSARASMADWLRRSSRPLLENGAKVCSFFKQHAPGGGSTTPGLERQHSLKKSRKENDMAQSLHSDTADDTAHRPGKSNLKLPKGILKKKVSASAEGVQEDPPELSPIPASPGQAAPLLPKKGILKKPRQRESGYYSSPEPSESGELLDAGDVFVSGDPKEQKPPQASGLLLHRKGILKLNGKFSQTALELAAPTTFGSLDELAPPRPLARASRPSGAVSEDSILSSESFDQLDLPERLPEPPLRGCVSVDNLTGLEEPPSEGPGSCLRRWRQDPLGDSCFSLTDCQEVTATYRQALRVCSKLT

Sequence of Myosin light chain kinase, smooth muscle (Homo sapiens) (Q15746 whole entry): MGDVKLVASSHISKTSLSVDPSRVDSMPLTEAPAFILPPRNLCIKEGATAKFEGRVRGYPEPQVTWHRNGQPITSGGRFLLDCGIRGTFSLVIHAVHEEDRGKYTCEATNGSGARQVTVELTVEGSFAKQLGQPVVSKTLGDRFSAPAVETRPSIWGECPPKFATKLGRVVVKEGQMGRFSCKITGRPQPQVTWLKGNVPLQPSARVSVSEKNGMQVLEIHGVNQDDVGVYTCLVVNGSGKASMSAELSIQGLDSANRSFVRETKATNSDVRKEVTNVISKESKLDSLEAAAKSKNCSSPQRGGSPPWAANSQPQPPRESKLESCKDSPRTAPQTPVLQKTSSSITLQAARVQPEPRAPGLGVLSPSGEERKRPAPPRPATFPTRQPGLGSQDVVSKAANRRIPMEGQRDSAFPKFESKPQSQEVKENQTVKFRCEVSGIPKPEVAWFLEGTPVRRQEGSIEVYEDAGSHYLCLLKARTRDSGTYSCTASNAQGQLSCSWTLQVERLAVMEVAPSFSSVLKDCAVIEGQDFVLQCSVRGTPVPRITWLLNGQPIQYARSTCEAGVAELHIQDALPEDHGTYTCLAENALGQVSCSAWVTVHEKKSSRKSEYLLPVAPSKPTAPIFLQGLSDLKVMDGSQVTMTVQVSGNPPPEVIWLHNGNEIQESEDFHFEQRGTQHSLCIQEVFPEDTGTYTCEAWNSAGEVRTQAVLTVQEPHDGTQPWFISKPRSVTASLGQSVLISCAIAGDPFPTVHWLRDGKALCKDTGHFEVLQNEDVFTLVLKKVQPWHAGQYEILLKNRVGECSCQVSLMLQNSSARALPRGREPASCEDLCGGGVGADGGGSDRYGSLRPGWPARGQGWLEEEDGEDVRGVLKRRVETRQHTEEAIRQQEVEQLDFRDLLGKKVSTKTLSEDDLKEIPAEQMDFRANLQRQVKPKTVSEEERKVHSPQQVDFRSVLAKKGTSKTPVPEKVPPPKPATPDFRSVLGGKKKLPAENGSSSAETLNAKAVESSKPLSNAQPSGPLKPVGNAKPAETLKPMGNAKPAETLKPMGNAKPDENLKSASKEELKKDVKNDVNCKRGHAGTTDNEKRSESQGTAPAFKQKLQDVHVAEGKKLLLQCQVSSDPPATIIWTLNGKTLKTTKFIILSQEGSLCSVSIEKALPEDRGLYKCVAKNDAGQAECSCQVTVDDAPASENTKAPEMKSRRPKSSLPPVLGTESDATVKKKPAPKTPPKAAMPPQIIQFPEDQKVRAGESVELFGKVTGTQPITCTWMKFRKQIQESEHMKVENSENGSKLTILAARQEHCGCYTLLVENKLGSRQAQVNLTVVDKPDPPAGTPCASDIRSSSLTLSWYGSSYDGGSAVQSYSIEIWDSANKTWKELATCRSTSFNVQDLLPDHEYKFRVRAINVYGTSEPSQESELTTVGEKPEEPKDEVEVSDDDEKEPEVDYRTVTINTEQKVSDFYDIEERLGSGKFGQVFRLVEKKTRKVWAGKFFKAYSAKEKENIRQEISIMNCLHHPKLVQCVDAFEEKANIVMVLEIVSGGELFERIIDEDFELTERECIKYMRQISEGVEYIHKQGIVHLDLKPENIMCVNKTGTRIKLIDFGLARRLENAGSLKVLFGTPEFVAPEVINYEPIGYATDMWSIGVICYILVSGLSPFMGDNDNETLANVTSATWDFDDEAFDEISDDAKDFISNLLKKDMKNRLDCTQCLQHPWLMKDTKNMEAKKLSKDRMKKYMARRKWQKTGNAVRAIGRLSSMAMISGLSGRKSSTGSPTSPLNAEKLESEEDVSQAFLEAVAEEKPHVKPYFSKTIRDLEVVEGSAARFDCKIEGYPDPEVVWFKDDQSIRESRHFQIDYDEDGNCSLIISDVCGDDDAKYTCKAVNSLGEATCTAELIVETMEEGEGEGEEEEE
Sequence of Homeodomain-interacting protein kinase 1 (Homo sapiens) (Q86Z02 whole entry, looked up): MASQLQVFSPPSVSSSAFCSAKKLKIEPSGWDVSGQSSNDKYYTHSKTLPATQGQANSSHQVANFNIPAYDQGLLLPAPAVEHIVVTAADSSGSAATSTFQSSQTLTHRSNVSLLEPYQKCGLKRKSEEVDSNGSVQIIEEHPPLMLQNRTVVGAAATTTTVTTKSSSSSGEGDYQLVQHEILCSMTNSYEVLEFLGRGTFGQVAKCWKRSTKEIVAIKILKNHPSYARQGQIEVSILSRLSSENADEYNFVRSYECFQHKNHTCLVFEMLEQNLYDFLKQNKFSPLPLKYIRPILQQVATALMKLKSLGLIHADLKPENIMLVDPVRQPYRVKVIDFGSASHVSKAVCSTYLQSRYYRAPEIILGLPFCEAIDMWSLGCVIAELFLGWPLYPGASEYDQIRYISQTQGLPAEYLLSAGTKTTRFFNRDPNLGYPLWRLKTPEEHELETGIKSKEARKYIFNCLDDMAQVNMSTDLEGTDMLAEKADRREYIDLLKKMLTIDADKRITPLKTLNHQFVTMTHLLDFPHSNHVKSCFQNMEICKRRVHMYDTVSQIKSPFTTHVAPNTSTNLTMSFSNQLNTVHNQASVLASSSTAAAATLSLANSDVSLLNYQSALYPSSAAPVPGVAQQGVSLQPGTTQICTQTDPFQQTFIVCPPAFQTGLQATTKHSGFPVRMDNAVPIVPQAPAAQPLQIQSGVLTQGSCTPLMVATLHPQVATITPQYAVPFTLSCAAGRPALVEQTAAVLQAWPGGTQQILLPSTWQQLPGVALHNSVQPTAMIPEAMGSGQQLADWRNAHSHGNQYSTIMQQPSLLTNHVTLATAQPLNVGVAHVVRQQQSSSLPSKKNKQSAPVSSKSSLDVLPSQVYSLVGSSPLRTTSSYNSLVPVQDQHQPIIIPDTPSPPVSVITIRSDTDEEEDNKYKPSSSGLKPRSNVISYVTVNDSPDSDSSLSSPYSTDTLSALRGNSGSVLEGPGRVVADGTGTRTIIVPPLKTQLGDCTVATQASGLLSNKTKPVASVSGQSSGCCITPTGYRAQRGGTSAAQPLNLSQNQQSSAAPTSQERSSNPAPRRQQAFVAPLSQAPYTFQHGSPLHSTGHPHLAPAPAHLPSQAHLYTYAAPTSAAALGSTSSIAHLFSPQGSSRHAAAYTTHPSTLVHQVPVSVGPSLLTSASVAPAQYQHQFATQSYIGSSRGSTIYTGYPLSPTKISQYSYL

## CNC(=O)c1ccccc1Oc1nc(Nc2cc(OC)c(OC)c(OC)c2)ncc1Br
[1]
  fold change (FC): 0
[2]
  fold change (FC): 0.04

## CC(C)[C@H](NC(=O)c1cc(-c2cnn3cc(-c4ccc(OCCN5CCCCC5)cc4)cnc23)cs1)C(F)(F)F
[3]
  fold change (FC): 0
[4]
  fold change (FC): 0.08

## O=C(N[C@@H](C1CC1)C(F)(F)F)c1cc(-c2cnn3cc(-c4ccc(F)cc4)cnc23)cs1
[5]
  inhibition: 0%
[6]
  fold change (FC): 0.04
